# According to US10273221B2, “Microbiocidal heterobicyclic derivatives” (Syngenta Participations AG, priority 2015, dated 2019):
# Experiments:
# Pyrenophora teres = Pyrenophora teres / liquid culture (net blotch); format: cell-based; conditions: growth inhibition determined photometrically 3-4 days after application, vs untreated control
# [1] = system: Glomerella lagenarium (Colletotrichum lagenarium); test: Glomerella lagenarium (Colletotrichum lagenarium) / liquid culture (anthracnose); format: cell-based; conditions: Colletotrichum orbiculare, growth inhibition measured photometrically 3-4 days after application, vs untreated control, read-out: disease control
# Gaeumannomyces graminis = Gaeumannomyces graminis / liquid culture (take-all of cereals); format: cell-based; conditions: growth inhibition determined photometrically 4-5 days after application, vs untreated control, read-out: disease control
# Fusarium culmorum = test: microbe, parasite or virus in culture; format: cell-based; conditions: 72 h, read-out: disease control
# [2] = system: Monographella nivalis (Microdochium nivale); test: Monographella nivalis (Microdochium nivale) / liquid culture (foot rot cereals); format: cell-based; conditions: 96 h, growth inhibition determined photometrically 4-5 days after application, vs untreated control, read-out: disease control
# [3] = system: Magnaporthe grisea (Pyricularia oryzae); test: microbe, parasite or virus in culture; format: cell-based; conditions: 72 h, read-out: control of Magnaporthe grisea
# [4] = system: Botryotinia fuckeliana (Botrytis cinerea); test: Botryotinia fuckeliana (Botrytis cinerea) / liquid culture (gray mould); format: cell-based; conditions: growth inhibition determined photometrically 3-4 days after application, vs untreated control, read-out: disease control
# [5] = system: Mycosphaerella graminicola (Septoria tritici); test: Mycosphaerella graminicola (Septoria tritici) / liquid culture (Septoria blotch); format: cell-based; conditions: Zymoseptoria tritici, 96 h, growth inhibition determined photometrically 4-5 days after application, vs untreated control, read-out: disease control
# Sclerotinia sclerotiorum = Sclerotinia sclerotiorum / liquid culture (cottony rot); conditions: 72 h, read-out: control of Sclerotinia sclerotiorum
# Procedure: Sclerotinia sclerotiorum/Liquid Culture (Cottony Rot)
# Mycelia fragments of a newly grown liquid culture of the fungus are directly mixed into nutrient broth (Vogels broth). After placing a (DMSO) solution of test compound into a microtiter plate (96-well format) the nutrient broth containing the fungal material is added. The test plates are incubated at 24° C. and the inhibition of growth is determined photometrically 3-4 days after application.
Structure (SMILES),inhibition of growth at 20 ppm (Pyrenophora teres) [%],inhibition of growth at 200 ppm [1] [%],inhibition of growth at 200 ppm (Gaeumannomyces graminis) [%],inhibition of growth at 200 ppm (Fusarium culmorum) [%],melting point [°C],inhibition of growth at 200 ppm [2] [%],inhibition of growth at 20 ppm [3] [%],inhibition of growth at 200 ppm [4] [%],inhibition of growth at 200 ppm [5] [%],inhibition of growth at 20 ppm (Sclerotinia sclerotiorum) [%]
CCc1cccc2c1ncn2C1=NC(C)(C)C(C)(C)c2c(F)cccc21 [E-14],≥ 80,≥ 80,≥ 80,≥ 80,87 to 88,≥ 80,≥ 80,≥ 80,–,–
Cc1ccc2c(ncn2C2=NC(C)(C)C(F)(F)c3cc(F)ccc32)c1C [E-56],–,≥ 80,–,≥ 80,–,≥ 80,≥ 80,≥ 80,≥ 80,≥ 80
Cc1ccc2c(ncn2C2=NC(C)(C)C(=O)c3cc(Cl)ccc32)c1C [E-36],–,–,–,≥ 80,196 to 199,–,≥ 80,≥ 80,≥ 80,–
Cc1ccc2c(ncn2C2=NC(C)(C)C(C)(C)c3c(F)cccc32)c1C [E-18],≥ 80,≥ 80,≥ 80,≥ 80,–,≥ 80,≥ 80,≥ 80,≥ 80,≥ 80
Cc1cccc2c1ncn2C1=NCC2(CCCC2)c2ccccc21 [E-53],–,–,–,–,–,≥ 80,≥ 80,≥ 80,≥ 80,–
Cc1c(F)ccc2c1ncn2C1=NC(C)(C)C(=O)c2cc(Cl)ccc21 [E-35],–,–,–,≥ 80,133 to 136,–,≥ 80,≥ 80,≥ 80,–
CC1(C)N=C(n2cnc3c(Cl)cccc32)c2cccc(F)c2C1(C)C [E-17],≥ 80,≥ 80,≥ 80,≥ 80,50 to 51,≥ 80,≥ 80,≥ 80,–,≥ 80
Cc1ccc2c(ncn2C2=NC(C)(C)C(F)(F)c3c(F)cccc32)c1C [E-19],≥ 80,≥ 80,≥ 80,≥ 80,–,≥ 80,≥ 80,≥ 80,–,≥ 80
Cc1ccc2c(ncn2C2=NC(C)(C)C(C)(C)c3c(F)cccc32)c1F [E-60],–,≥ 80,≥ 80,≥ 80,–,≥ 80,≥ 80,≥ 80,≥ 80,–
Cc1c(Cl)ccc2c1ncn2C1=NC(C)(C)C(F)(F)c2ccccc21 [E-33],–,≥ 80,≥ 80,≥ 80,–,≥ 80,≥ 80,≥ 80,≥ 80,≥ 80
CC1(C)N=C(n2cnc3c(F)c(F)ccc32)c2cccc(F)c2C1(C)C [E-50],–,≥ 80,–,≥ 80,112 to 114,≥ 80,≥ 80,≥ 80,≥ 80,–
CC1(C)N=C(n2cnc3c(Br)cccc32)c2cccc(F)c2C1(C)C [E-4],≥ 80,≥ 80,≥ 80,≥ 80,48 to 49,≥ 80,≥ 80,≥ 80,–,–
Cc1ccc2c(ncn2C2=NC(C)(C)Cc3cc(F)ccc32)c1C [E-57],–,≥ 80,–,≥ 80,143 to 145,≥ 80,≥ 80,≥ 80,≥ 80,≥ 80
Cc1cccc2c1C(F)(F)C(C)(C)N=C2n1cnc2c(C)c(C)ccc21 [E-22],≥ 80,≥ 80,–,≥ 80,–,≥ 80,≥ 80,≥ 80,≥ 80,≥ 80
Cc1cccc2c1C(F)(F)C(C)(C)N=C2n1cnc2c(C)cccc21 [E-21],≥ 80,≥ 80,≥ 80,≥ 80,–,≥ 80,≥ 80,≥ 80,≥ 80,≥ 80
Cc1cccc2c1C(=O)C(C)(C)N=C2n1cnc2c(C)c(C)ccc21 [E-27],≥ 80,≥ 80,–,≥ 80,145 to 149,≥ 80,≥ 80,≥ 80,–,≥ 80
Cc1c(F)ccc2c1ncn2C1=NC(C)(C)C(F)(F)c2ccccc21 [E-32],–,≥ 80,≥ 80,≥ 80,118 to 121,≥ 80,≥ 80,≥ 80,≥ 80,≥ 80
Cc1cccc2c1ncn2C1=NC(C)(C)C(=O)c2cc(Cl)ccc21 [E-34],–,–,–,≥ 80,129 to 133,≥ 80,≥ 80,≥ 80,≥ 80,–
Cc1cccc2c1ncn2C1=NC(C)(C)C2(CC2)c2ccccc21 [E-9],≥ 80,≥ 80,≥ 80,≥ 80,–,≥ 80,≥ 80,≥ 80,–,–
Cc1cccc2c1C(=O)C(C)(C)N=C2n1cnc2c(C)cccc21 [E-26],≥ 80,≥ 80,–,≥ 80,96 to 101,≥ 80,≥ 80,≥ 80,–,≥ 80
Cc1ccc2c(ncn2C2=NC(C)(C)C(F)(F)c3ccccc32)c1C [E-23],≥ 80,≥ 80,≥ 80,≥ 80,–,≥ 80,≥ 80,≥ 80,–,≥ 80
CC1(C)N=C(n2cnc3c4c(ccc32)CCC4)c2ccccc2C1(F)F [E-55],–,≥ 80,–,≥ 80,–,≥ 80,≥ 80,≥ 80,≥ 80,≥ 80
Cc1cc2ncn(C3=NC(C)(C)C(C)(C)c4c(F)cccc43)c2cc1C [E-30],–,≥ 80,≥ 80,≥ 80,–,≥ 80,≥ 80,≥ 80,≥ 80,≥ 80
Cc1cccc2c1ncn2C1=NCC2(CCC2)c2ccccc21 [E-54],–,≥ 80,–,–,–,≥ 80,≥ 80,≥ 80,≥ 80,–
Cc1cccc2c1ncn2C1=NC(C)(C)C(F)(F)c2ccccc21 [E-15],≥ 80,≥ 80,≥ 80,≥ 80,–,≥ 80,≥ 80,≥ 80,–,≥ 80
CC1(C)N=C(n2cnc3c(F)cccc32)c2cccc(F)c2C1(C)C [E-7],≥ 80,≥ 80,≥ 80,≥ 80,–,≥ 80,≥ 80,≥ 80,–,–
